Results taken from ChEMBL document CHEMBL3861969, “Acredinone C and the Effect of Acredinones on Osteoclastogenic and Osteoblastogenic Activity” (J Nat Prod, 2016).
Activity calls are given as the source filed them. The calls are words filed in the database; no cut-off is given here.

Columns and labels:
Osteoclast = assay: Inhibition of RANKL-induced mouse BMDM cell differentiation assessed as reduction in TRAP-positive multi-nucleated osteoclast cells preincubated for 5 mins followed by RANKL/M-CSF addition measured after 4 days by light microscopic analysis; type: functional, cell-based
BMDM [1] = assay: Inhibition of RANKL-induced mouse BMDM cell differentiation assessed as reduction in TRAP activity at 0.1 to 30 uM using p-nitrophenyl phosphate as substrate preincubated for 5 mins followed by RANKL/M-CSF addition measured after 4 days; type: functional, cell-based
BMDM [2] = assay: Inhibition of RANKL-induced mouse BMDM cell differentiation assessed as TRAP-positive MNCs at 0.1 to 30 uM preincubated for 5 mins followed by RANKL/M-CSF addition measured after 4 days by TRAP-staining based assay; type: functional
[3] = target: MAP kinase p38 (Mus musculus) (UniProt P47811+O08911+Q9WUI1+Q9Z1B7); assay: Inhibition of RANKL-induced p38 phosphorylation in mouse BMDM cells assessed as ratio of phosphorylated p38 to p38 at 10 uM preincubated for 5 mins followed RANKL/M-CSF addition for 5 mins by Western blot analysis (reference value: 24.7); type: cell-based
[4] = target: Mitogen-activated protein kinase 3 (Mus musculus) (UniProt Q63844); assay: Inhibition of RANKL-induced ERK1 phosphorylation in mouse BMDM cells assessed as ratio of phosphorylated ERK1 to ERK1 at 10 uM preincubated for 5 mins followed RANKL/M-CSF addition for 5 mins by Western blot analysis (reference value: 2.9); type: cell-based
Chain of Mitogen-activated protein kinase 3 (Mus musculus) (Q63844 whole entry): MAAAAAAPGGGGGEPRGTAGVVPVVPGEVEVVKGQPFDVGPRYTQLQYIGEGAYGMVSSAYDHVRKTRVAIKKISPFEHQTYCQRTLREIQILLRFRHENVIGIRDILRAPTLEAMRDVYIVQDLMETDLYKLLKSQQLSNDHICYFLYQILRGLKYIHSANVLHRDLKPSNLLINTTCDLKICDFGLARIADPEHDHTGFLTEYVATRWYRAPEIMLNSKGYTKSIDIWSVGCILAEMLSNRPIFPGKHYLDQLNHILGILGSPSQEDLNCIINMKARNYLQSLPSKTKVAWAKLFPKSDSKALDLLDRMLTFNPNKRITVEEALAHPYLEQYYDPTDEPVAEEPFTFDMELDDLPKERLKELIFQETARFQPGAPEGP

[5] = target: Mitogen-activated protein kinase 1 (Mus musculus) (UniProt P63085); assay: Inhibition of RANKL-induced ERK2 phosphorylation in mouse BMDM cells assessed as ratio of phosphorylated ERK2 to ERK2 at 10 uM preincubated for 5 mins followed RANKL/M-CSF addition for 5 mins by Western blot analysis (reference value: 2.6); type: cell-based
Chain of Mitogen-activated protein kinase 1 (Mus musculus) (P63085 whole entry): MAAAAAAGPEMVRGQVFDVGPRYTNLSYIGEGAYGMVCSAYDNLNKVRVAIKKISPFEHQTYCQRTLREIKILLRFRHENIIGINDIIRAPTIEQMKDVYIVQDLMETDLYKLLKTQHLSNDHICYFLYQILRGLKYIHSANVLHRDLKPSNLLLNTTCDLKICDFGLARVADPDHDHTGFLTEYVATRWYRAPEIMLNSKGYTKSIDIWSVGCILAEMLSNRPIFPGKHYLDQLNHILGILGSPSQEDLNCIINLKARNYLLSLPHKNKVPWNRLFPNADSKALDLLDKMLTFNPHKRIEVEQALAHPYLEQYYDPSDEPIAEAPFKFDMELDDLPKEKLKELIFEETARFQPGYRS

[6] = target: Mitogen-activated protein kinase 9 (Mus musculus) (UniProt Q9WTU6); assay: Inhibition of RANKL-induced JNK2 phosphorylation in mouse BMDM cells assessed as ratio of phosphorylated JNK2 to JNK2 at 10 uM preincubated for 5 mins followed RANKL/M-CSF addition for 5 mins by Western blot analysis (reference value: 5.2); type: cell-based
Chain of Mitogen-activated protein kinase 9 (Mus musculus) (Q9WTU6 whole entry): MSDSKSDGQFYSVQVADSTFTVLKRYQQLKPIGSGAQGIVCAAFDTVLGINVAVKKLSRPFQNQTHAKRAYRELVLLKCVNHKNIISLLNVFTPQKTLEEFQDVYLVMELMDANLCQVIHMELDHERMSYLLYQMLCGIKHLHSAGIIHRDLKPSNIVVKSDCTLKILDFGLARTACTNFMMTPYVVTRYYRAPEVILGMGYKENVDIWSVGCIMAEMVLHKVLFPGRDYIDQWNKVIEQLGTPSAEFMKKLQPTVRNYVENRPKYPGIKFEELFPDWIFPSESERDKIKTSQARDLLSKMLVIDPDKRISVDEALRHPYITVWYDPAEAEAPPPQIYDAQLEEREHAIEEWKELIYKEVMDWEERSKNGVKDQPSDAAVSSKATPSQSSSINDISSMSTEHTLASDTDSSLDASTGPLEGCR

[7] = target: Mitogen-activated protein kinase 8 (Mus musculus) (UniProt Q91Y86); assay: Inhibition of RANKL-induced JNK1 phosphorylation in mouse BMDM cells assessed as ratio of phosphorylated JNK1 to JNK1 at 10 uM preincubated for 5 mins followed RANKL/M-CSF addition for 5 mins by Western blot analysis (reference value: 3.7); type: cell-based
Chain of Mitogen-activated protein kinase 8 (Mus musculus) (Q91Y86 whole entry): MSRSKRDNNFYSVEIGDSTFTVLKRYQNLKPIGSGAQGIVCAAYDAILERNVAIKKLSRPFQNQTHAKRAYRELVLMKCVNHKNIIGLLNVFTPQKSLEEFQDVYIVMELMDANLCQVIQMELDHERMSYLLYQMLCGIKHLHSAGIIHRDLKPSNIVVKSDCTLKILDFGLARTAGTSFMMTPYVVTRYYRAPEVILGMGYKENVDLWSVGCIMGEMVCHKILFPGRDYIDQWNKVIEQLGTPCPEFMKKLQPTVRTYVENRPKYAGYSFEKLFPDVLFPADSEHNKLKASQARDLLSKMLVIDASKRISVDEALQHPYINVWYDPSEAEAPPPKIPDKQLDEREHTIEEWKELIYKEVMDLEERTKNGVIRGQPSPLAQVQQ

[8] = target: RAC-alpha serine/threonine-protein kinase (Mus musculus) (UniProt P31750); assay: Inhibition of RANKL-induced AKT phosphorylation in mouse BMDM cells assessed as ratio of phosphorylated AKT to AKT at 10 uM preincubated for 5 mins followed RANKL/M-CSF addition for 5 mins by Western blot analysis (reference value: 2.1); type: cell-based
Chain of RAC-alpha serine/threonine-protein kinase (Mus musculus) (P31750 whole entry): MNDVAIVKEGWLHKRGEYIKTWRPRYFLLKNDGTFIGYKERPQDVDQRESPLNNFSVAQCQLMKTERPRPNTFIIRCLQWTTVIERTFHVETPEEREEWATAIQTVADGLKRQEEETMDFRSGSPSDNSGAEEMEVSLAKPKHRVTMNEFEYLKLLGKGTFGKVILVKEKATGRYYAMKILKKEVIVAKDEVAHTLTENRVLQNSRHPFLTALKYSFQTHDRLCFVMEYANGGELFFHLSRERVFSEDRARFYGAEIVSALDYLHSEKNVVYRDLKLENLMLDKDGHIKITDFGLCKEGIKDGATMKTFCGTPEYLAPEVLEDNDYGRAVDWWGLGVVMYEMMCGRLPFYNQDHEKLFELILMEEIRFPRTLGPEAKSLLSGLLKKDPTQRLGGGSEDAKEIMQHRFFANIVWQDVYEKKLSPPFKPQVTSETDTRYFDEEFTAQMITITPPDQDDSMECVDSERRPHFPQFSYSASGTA

[9] = Inhibition of RANKL-induced c-Fos expression in mouse BMDM cells assessed as ratio of c-Fos to actin at 10 uM preincubated with cells followed RANKL/M-CSF addition measured after 1 day by Western blot analysis (reference value: 6.4); type: functional
[10] = Inhibition of RANKL-induced NFATc1 expression in mouse BMDM cells assessed as ratio of NFATc1 to actin at 10 uM preincubated with cells followed RANKL/M-CSF addition measured after 1day by Western blot analysis (reference value: 281); type: functional
BMDM [11] = assay: Inhibition of RANKL-induced mouse BMDM cell differentiation assessed as TRAP-positive MNCs at 0.1 to 10 uM preincubated for 5 mins followed by RANKL/M-CSF addition measured after 4 days by TRAP-staining based assay; type: functional
Mus musculus [12] = species: Mus musculus; assay: Cytotoxicity against mouse BMDM cells assessed as reduction in cell viability up to 10 uM after 3 days in presence of M-CSF by CCK-8 assay; type: toxicity, cell-based; conditions: 72 h
BMDM [13] = assay: Inhibition of RANKL-induced NFATc1 mRNA expression in mouse BMDM cells at 10 uM preincubated with cells followed by RANKL addition measured after 2 days by real-time PCR analysis; type: functional, cell-based
BMDM [14] = assay: Inhibition of RANKL-induced TRAP mRNA expression in mouse BMDM cells at 10 uM preincubated with cells followed by RANKL addition measured after 2 days by real-time PCR analysis; type: functional, cell-based
BMDM [15] = assay: Inhibition of RANKL-induced OSCAR mRNA expression in mouse BMDM cells at 10 uM preincubated with cells followed by RANKL addition measured after 2 days by real-time PCR analysis; type: functional, cell-based
BMDM [16] = assay: Inhibition of RANKL-induced c-Src mRNA expression in mouse BMDM cells at 10 uM preincubated with cells followed by RANKL addition measured after 2 days by real-time PCR analysis; type: functional, cell-based
BMDM [17] = assay: Inhibition of RANKL-induced DC-STAMP mRNA expression in mouse BMDM cells at 10 uM preincubated with cells followed by RANKL addition measured after 2 days by real-time PCR analysis; type: functional, cell-based
BMDM [18] = assay: Inhibition of RANKL-induced cathespin K mRNA expression in mouse BMDM cells at 10 uM preincubated with cells followed by RANKL addition measured after 2 days by real-time PCR analysis; type: functional, cell-based
C2C12 [19] = assay: Induction of BMP2-induced osteoblast differentiation in mouse C2C12 cells assessed as increase in ALP mRNA expression at 10 uM preincubated with cells followed by BMP2 addition measured after 3 days by real-time PCR analysis; type: functional, cell-based
Mus musculus [20] = species: Mus musculus; assay: Cytotoxicity against mouse C2C12 cells assessed as reduction cell viability after 3 days in presence of BMP2 by CCK-8 assay; type: toxicity, cell-based; conditions: c2c12, 72 h
[21] = target: T1, NF-kappa-B inhibitor alpha (Mus musculus) (UniProt Q9Z1E3); assay: Inhibition of RANKL-induced IkBalpha phosphorylation in mouse BMDM cells at 10 uM preincubated for 5 mins followed RANKL/M-CSF addition for 5 mins by Western blot analysis; type: cell-based
T1 sequence (whole entry): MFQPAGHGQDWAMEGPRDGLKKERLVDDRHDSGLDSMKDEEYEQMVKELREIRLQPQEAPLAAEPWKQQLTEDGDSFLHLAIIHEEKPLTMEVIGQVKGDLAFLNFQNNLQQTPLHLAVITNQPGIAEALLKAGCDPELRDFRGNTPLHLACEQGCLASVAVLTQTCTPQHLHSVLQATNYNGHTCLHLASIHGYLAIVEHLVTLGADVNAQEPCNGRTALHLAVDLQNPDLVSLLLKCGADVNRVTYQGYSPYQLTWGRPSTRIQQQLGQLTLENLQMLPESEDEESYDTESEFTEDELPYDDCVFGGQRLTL

C2C12 [22] = assay: Induction of BMP2-induced osteoblast differentiation in mouse C2C12 cells preincubated with cells after 3 days by […] assay; type: functional, cell-based
C2C12 [23] = assay: Induction of osteoblast differentiation in mouse C2C12 cells assessed as increase in BMP2-induced ALP activity preincubated with cells after 3 days using p-nitrophenyl phosphate as substrate; type: functional, cell-based
C2C12 [24] = assay: Increase in BMP2-induced BMP2 mRNA expression in mouse C2C12 cells at 10 uM measured on day 3 by real-time PCR analysis; type: functional, cell-based
C2C12 [25] = assay: Increase in BMP2-induced BMP4 mRNA expression in mouse C2C12 cells at 10 uM measured on day 3 by real-time PCR analysis; type: functional, cell-based
C2C12 [26] = assay: Increase in BMP2-induced BMP6 mRNA expression in mouse C2C12 cells at 10 uM measured on day 3 by real-time PCR analysis; type: functional, cell-based
C2C12 [27] = assay: Increase in BMP2-induced BMP7 mRNA expression in mouse C2C12 cells at 10 uM measured on day 3 by real-time PCR analysis; type: functional, cell-based
C2C12 [28] = assay: Increase in BMP2-induced BMP9 mRNA expression in mouse C2C12 cells at 10 uM measured on day 3 by real-time PCR analysis; type: functional, cell-based
C2C12 [29] = assay: Increase in BMP2-induced BMP2 protein expression in mouse C2C12 cells assessed as ration of BMP2 to actin at 10 uM measured on day 3 by Western blot analysis (reference value: 1.4); type: functional
SMAD1/5/9 (Mus musculus) [30] = target: T2, SMAD1/5/9 (Mus musculus) (UniProt P70340+P97454+Q9JIW5); assay: Increase in BMP2-induced Smad1/5/8 phosphorylation in mouse C2C12 cells assessed as ratio of phosphorylated Smad1/5/8 to Smad1/5/8 in nuclear fraction at 10 uM preincubated with cells followed by BMP2 addition for 4 hrs by Western blot analysis (reference value: 1.2); type: cell-based
C2C12 [31] = assay: Increase in BMP2-induced BMP7 protein expression in mouse C2C12 cells assessed as ratio of BMP7 to actin at 10 uM measured on day 6 by Western blot analysis (reference value: 2.4); type: functional
Mus musculus [32] = assay: Osteogenic activity in ICR mouse calvarial bone implanted with collagen sponges containing 10 mM compound incubated for 2 weeks assessed as increase in bone volume relative to control; type: functional
Mus musculus [33] = assay: Osteogenic activity in ICR mouse calvarial bone implanted with collagen sponges containing 10 mM compound incubated for 2 weeks assessed as increase in woven bone formation near periosteum of the calvarial bone by hematoxylin and eosin staining based assay relative to control; type: functional
SMAD1/5/9 (Mus musculus) [34] = target: T2, SMAD1/5/9 (Mus musculus); assay: Increase in BMP2-induced Smad1/5/8 nuclear translocation in mouse C2C12 cells assessed as ratio of Smad1/5/8 to lamin B1 in nuclear fraction at 10 uM preincubated with cells followed by BMP2 addition for 4 hrs by Western blot analysis (reference value: 1.5); type: cell-based
SMAD1/5/9 (Mus musculus) [35] = target: T2, SMAD1/5/9 (Mus musculus); assay: Increase in BMP2-induced Smad1/5/8 nuclear translocation in mouse C2C12 cells assessed as ratio of Smad1/5/8 to actin in cytosol fraction at 10 uM preincubated with cells followed by BMP2 addition for 4 hrs by Western blot analysis (reference value: 0.4); type: cell-based
SMAD1/5/9 (Mus musculus) [36] = target: T2, SMAD1/5/9 (Mus musculus); assay: Activation of Smad1/5/8 in mouse C2C12 cells assessed as increase in BMP2-stimulated Runx2 mRNA expression at 10 uM preincubated with cells followed by BMP2 addition after 3 days by real-time PCR analysis; type: cell-based
SMAD1/5/9 (Mus musculus) [37] = target: T2, SMAD1/5/9 (Mus musculus); assay: Activation of Smad1/5/8 in mouse C2C12 cells assessed as increase in BMP2-stimulated […] mRNA expression at 10 uM preincubated with cells followed by BMP2 addition after 3 days by real-time PCR analysis; type: cell-based
SMAD1/5/9 (Mus musculus) [38] = target: T2, SMAD1/5/9 (Mus musculus); assay: Activation of Smad1/5/8 in mouse C2C12 cells assessed as increase in BMP2-stimulated OPN mRNA expression at 10 uM preincubated with cells followed by BMP2 addition after 3 days by real-time PCR analysis; type: cell-based
Mus musculus [39] = species: Mus musculus; assay: Cytotoxicity against mouse BMDM cells assessed as reduction in cell viability at 30 uM after 3 days in presence of M-CSF by CCK-8 assay; type: toxicity, cell-based; conditions: 72 h

fold change (FC) [3]	fold change (FC) [4]	fold change (FC) [5]	fold change (FC) [6]	fold change (FC) [7]	fold change (FC) [8]	SMILES	inhibition (Osteoclast)	inhibition (BMDM [1])	inhibition (BMDM [2])	fold change (FC) [9]	fold change (FC) [10]	inhibition (BMDM [11])	Activity (Mus musculus [12])	inhibition (BMDM [13])	inhibition (BMDM [14])	inhibition (BMDM [15])	inhibition (BMDM [16])	inhibition (BMDM [17])	inhibition (BMDM [18])	Activity (C2C12 [19])	other results
8.2	3.3	2.6	3.7	2.2	1.7	COc1cccc(OC)c1C(=O)c1c(O)cc(C)c(OC)c1C(=O)Cc1c(OC)c(C)cc2oc3cccc(OC)c3c(=O)c12	Dose-dependent effect	Active	Active	2.4	85	Active	Non-Toxic	Active	Active	Active	Active	Active	Active	Active	Activity (Mus musculus [20]): Non-Toxic; inhibition [21]: Active
13.2	3.2	2.8	4.3	2.9	2	COc1cccc(OC)c1C(=O)c1c(O)cc(C)c(OC)c1C1=C(c2c(OC)cccc2OC)c2c(O)cc(C)c(OC)c2C1=O	Dose-dependent effect	Active	Active	5.5	175	Active	Non-Toxic	Active	Active	Active	Active	Active	Active	Active	Activity (C2C12 [22]): Dose-dependent effect; Activity (Mus musculus [20]): Non-Toxic; Activity (C2C12 [23]): Dose-dependent effect; Activity (C2C12 [24]): Active; Activity (C2C12 [25]): Active; Activity (C2C12 [26]): Active; Activity (C2C12 [27]): Active; Activity (C2C12 [28]): Active; fold change (FC) (C2C12 [29]): 3.8; fold change (FC) (SMAD1/5/9 (Mus musculus) [30]): 1.7; fold change (FC) (C2C12 [31]): 3.1; fold change (FC) (Mus musculus [32]): 2.7; Activity (Mus musculus [33]): Active; fold change (FC) (SMAD1/5/9 (Mus musculus) [34]): 2.4; fold change (FC) (SMAD1/5/9 (Mus musculus) [35]): 0.1; Activity (SMAD1/5/9 (Mus musculus) [36]): Active; Activity (SMAD1/5/9 (Mus musculus) [37]): Active; Activity (SMAD1/5/9 (Mus musculus) [38]): Active; inhibition [21]: Active
20.2	2.1	1.7	4.2	2.7	1.1	COc1cccc(OC)c1C(=O)c1c(O)cc(C)c(OC)c1CC(=O)c1c(OC)c(C)cc(O)c1C(=O)c1c(OC)cccc1OC	Dose-dependent effect	Active	Active	3.5	124	Active	Non-Toxic	Active	Active	Active	Active	Active	Active	Active	Activity (Mus musculus [39]): Toxic; Activity (Mus musculus [20]): Non-Toxic; inhibition [21]: Active
